# Laboratory results as given in patent publication US20140343000A1 (priority 2011, published 2014).
# Tested on: recombinant NL4-3 virus (Renilla luciferase in nef, Gag P373S; NLRluc) in MT-2 cells
# Experiment: whole plant or invertebrate
# Type: cell-based, HIV
# Conditions: Renilla, NL43, luciferase activity in cells infected for 4-5 days with NLRluc recombinants, serial dilutions of inhibitor; class symbols (key in Table 1); read-out: EC50
# Description: MT-2 cells and 293T cells were obtained from the NIH AIDS Research and Reference Reagent Program. MT-2 cells were propagated in RPMI 1640 media supplemented with 10% heat inactivated fetal bovine serum, […]. The 293T cells were propagated in DMEM media supplemented with 10% heat inactivated fetal bovine serum (FBS), 100 units/ml penicillin G and 100 μg/ml streptomycin. The proviral DNA clone of NL4-3 was obtained from the NIH AIDS Research and Reference Reagent Program. A recombinant NL4-3 virus, in which a section of the nef gene from NL4-3 was replaced with the Renilla luciferase gene, was used as a reference virus. In addition, residue Gag P373 was converted to P373S. Briefly, the recombinant virus was prepared by transfection of the altered proviral clone of NL4-3. Transfections were performed in 293T cells using LipofectAMINE PLUS from Invitrogen (Carlsbad, Calif.), according to manufacturer's instruction. The virus was titered in MT-2 cells using luciferase enzyme activity as a marker. Luciferase was quantitated using the Dual Luciferase kit from Promega (Madison, Wis.), with modifications to the manufacturer's protocol. The diluted Passive Lysis solution was pre-mixed with the re-suspended Luciferase Assay Reagent and the re-suspended Stop & Glo Substrate (2:1:1 ratio). Fifty (50) μL of the mixture was added to each aspirated well on assay plates and luciferase activity was measured immediately on a Wallac TriLux (Perkin-Elmer). Antiviral activities of inhibitors toward the recombinant virus were quantified by measuring luciferase activity in cells infected for 4-5 days with NLRluc recombinants in the presence serial dilutions of the inhibitor. Table 1 is the key for the data in Table 2.
row,Compound,EC50
1,"C=C(C)[C@@H]1CC[C@]2(NC(=O)N3CCN(C(=O)OC(C)(C)C)CC3CO)CC[C@]3(C)[C@H](CC[C@@H]4[C@@]5(C)CC=C(c6ccc(C(=O)O)cc6)C(C)(C)[C@@H]5CC[C@]43C)[C@@H]12 (mixture of isomers) [Example 61, 4-((1R,3aS,5aR,5bR,7aR,11aS,11bR,13aR,13bR)-3a-(4-(tert-butoxycarbonyl)-2-(hydroxymethyl)piperazine-1-carboxamido)-5a,5b,8,8,11a-pentamethyl-1-(prop-1-en-2-yl)-2,3,3a,4,5,5a,5b,6,7,7a,8,11,11a,11b,12,13,13a,13b-octadecahydro-1H-cyclopenta[a]chrysen-9-yl)benzoic acid]",< 100 nM
2,"C=C(C)[C@@H]1CC[C@]2(NC(=O)N3CCN(C(=O)OC(C)(C)C)CC3C(=O)O)CC[C@]3(C)[C@H](CC[C@@H]4[C@@]5(C)CC=C(c6ccc(C(=O)O)cc6)C(C)(C)[C@@H]5CC[C@]43C)[C@@H]12 (mixture of isomers) [Example 62, 4-(tert-butoxycarbonyl)-1-((1R,3aS,5aR,5bR,7aR,11aS,11bR,13aR,13bR)-9-(4-carboxyphenyl)-5a,5b,8,8,11a-pentamethyl-1-(prop-1-en-2-yl)-2,3,3a,4,5,5a,5b,6,7,7a,8,11,11a,11b,12,13,13a,13b-octadecahydro-1H-cyclopenta[a]chrysen-3a-ylcarbamoyl)piperazine-2-carboxylic acid]",< 100 nM
3,"C=C(C)[C@@H]1CC[C@]2(NC(=O)N3CCNC(C(=O)O)C3)CC[C@]3(C)[C@H](CC[C@@H]4[C@@]5(C)CC=C(c6ccc(C(=O)O)cc6)C(C)(C)[C@@H]5CC[C@]43C)[C@@H]12 (mixture of isomers) [Example 63, 4-((1R,3aS,5aR,5bR,7aR,11aS,11bR,13aR,13bR)-9-(4-carboxyphenyl)-5a,5b,8,8,11a-pentamethyl-1-(prop-1-en-2-yl)-2,3,3a,4,5,5a,5b,6,7,7a,8,11,11a,11b,12,13,13a,13b-octadecahydro-1H-cyclopenta[a]chrysen-3a-ylcarbamoyl)piperazine-2-carboxylic acid]",< 100 nM
4,"C=C(C)[C@@H]1CC[C@]2(NC(=O)N3CCNCC(O)C3)CC[C@]3(C)[C@H](CC[C@@H]4[C@@]5(C)CC=C(c6ccc(C(=O)O)cc6)C(C)(C)[C@@H]5CC[C@]43C)[C@@H]12 (mixture of isomers) [Example 64, 4-((1R,3aS,5aR,5bR,7aR,11aS,11bR,13aR,13bR)-3a-(6-hydroxy-1,4-diazepane-1-carboxamido)-5a,5b,8,8,11a-pentamethyl-1-(prop-1-en-2-yl)-2,3,3a,4,5,5a,5b,6,7,7a,8,11,11a,11b,12,13,13a,13b-octadecahydro-1H-cyclopenta[a]chrysen-9-yl)benzoic acid]",< 100 nM
5,"C=C(C)[C@@H]1CC[C@]2(NC(=O)C(c3ccccc3)N3CCS(=O)(=O)CC3)CC[C@]3(C)[C@H](CC[C@@H]4[C@@]5(C)CC=C(c6ccc(C(=O)O)cc6)C(C)(C)[C@@H]5CC[C@]43C)[C@@H]12 (single isomer, unassigned) [Example 91]",< 100 nM
6,"C=C(C)[C@@H]1CC[C@]2(NC(=O)C(C(C)C)N3CCS(=O)(=O)CC3)CC[C@]3(C)[C@H](CC[C@@H]4[C@@]5(C)CC=C(c6ccc(C(=O)O)cc6)C(C)(C)[C@@H]5CC[C@]43C)[C@@H]12 (single isomer, unassigned) [Example 110]",< 100 nM
7,"C=C(C)[C@@H]1CC[C@]2(N)CC[C@]3(C)[C@H](CC[C@@H]4[C@@]5(C)CC=C(c6ccc(C(=O)O)cc6)C(C)(C)[C@@H]5CC[C@]43C)[C@@H]12 [Example 1, 4-((1R,3aS,5aR,5bR,7aR,11aS,11bR,13aR,13bR)-3a-amino-5a,5b,8,8,11a-pentamethyl-1-(prop-1-en-2-yl)-2,3,3a,4,5,5a,5b,6,7,7a,8,11,11a,11b,12,13,13a,13b-octadecahydro-1H-cyclopenta[a]chrysen-9-yl)benzoic acid]",< 100 nM
8,C=C(C)[C@@H]1CC[C@]2(NC(=O)NCC3(NC(=O)OC(C)(C)C)CC3)CC[C@]3(C)[C@H](CC[C@@H]4[C@@]5(C)CC=C(c6ccc(C(=O)O)cc6)C(C)(C)[C@@H]5CC[C@]43C)[C@@H]12 [Example 2],< 100 nM
9,"C=C(C)[C@@H]1CC[C@]2(NC(=O)NC3(C(=O)O)CC3)CC[C@]3(C)[C@H](CC[C@@H]4[C@@]5(C)CC=C(c6ccc(C(=O)O)cc6)C(C)(C)[C@@H]5CC[C@]43C)[C@@H]12 [Example 4, 4-((1R,3aS,5aR,5bR,7aR,11aS,11bR,13aR,13bR)-3a-(3-(1-carboxycyclopropyl)ureido)-5a,5b,8,8,11a-pentamethyl-1-(prop-1-en-2-yl)-2,3,3a,4,5,5a,5b,6,7,7a,8,11,11a,11b,12,13,13a,13b-octadecahydro-1H-cyclopenta[a]chrysen-9-yl)benzoic acid]",> 100 nM
10,"C=C(C)[C@@H]1CC[C@]2(NC(=O)NC(C)(C)CN3CCOCC3)CC[C@]3(C)[C@H](CC[C@@H]4[C@@]5(C)CC=C(c6ccc(C(=O)O)cc6)C(C)(C)[C@@H]5CC[C@]43C)[C@@H]12 [Example 5, 4-((1R,3aS,5aR,5bR,7aR,11aS,11bR,13aR,13bR)-5a,5b,8,8,11a-pentamethyl-3a-(3-(2-methyl-1-morpholinopropan-2-yl)ureido)-1-(prop-1-en-2-yl)-2,3,3a,4,5,5a,5b,6,7,7a,8,11,11a,11b,12,13,13a,13b-octadecahydro-1H-cyclopenta[a]chrysen-9-yl)benzoic acid]",< 100 nM
11,"C=C(C)[C@@H]1CC[C@]2(NC(=O)NCC(C)(C)N3CCOCC3)CC[C@]3(C)[C@H](CC[C@@H]4[C@@]5(C)CC=C(c6ccc(C(=O)O)cc6)C(C)(C)[C@@H]5CC[C@]43C)[C@@H]12 [Example 6, 4-((1R,3aS,5aR,5bR,7aR,11aS,11bR,13aR,13bR)-5a,5b,8,8,11a-pentamethyl-3a-(3-(2-methyl-2-morpholinopropyl)ureido)-1-(prop-1-en-2-yl)-2,3,3a,4,5,5a,5b,6,7,7a,8,11,11a,11b,12,13,13a,13b-octadecahydro-1H-cyclopenta[a]chrysen-9-yl)benzoic acid]",< 100 nM

# Same assay, conditions: Renilla, NL43, luciferase activity in cells infected for 4-5 days with NLRluc recombinants, serial dilutions of inhibitor; numeric values; read-out: EC50
row,Compound,EC50
1,"C=C(C)[C@@H]1CC[C@]2(NC(=O)NCCN(C)C)CC[C@]3(C)[C@H](CC[C@@H]4[C@@]5(C)CC=C(c6ccc(C(=O)O)cc6)C(C)(C)[C@@H]5CC[C@]43C)[C@@H]12 [Example 3, 4-((1R,3aS,5aR,5bR,7aR,11aS,11bR,13aR,13bR)-3a-(3-(2-(dimethylamino)ethyl)ureido)-5a,5b,8,8,11a-pentamethyl-1-(prop-1-en-2-yl)-2,3,3a,4,5,5a,5b,6,7,7a,8,11,11a,11b,12,13,13a,13b-octadecahydro-1H-cyclopenta[a]chrysen-9-yl)benzoic acid]",4 nM

# Same assay, conditions: luciferase activity in cells infected for 4-5 days with NLRluc recombinants, serial dilutions of inhibitor; class symbols (key in Table 1); read-out: EC50
row,Compound,EC50
1,"C=C(C)[C@@H]1CC[C@]2(NC(=O)C(c3ccccc3)N3CCS(=O)(=O)CC3)CC[C@]3(C)[C@H](CC[C@@H]4[C@@]5(C)CC=C(c6ccc(C(=O)O)cc6)C(C)(C)[C@@H]5CC[C@]43C)[C@@H]12 (single isomer, unassigned) [Example 92]",< 100 nM
2,"C=C(C)[C@@H]1CC[C@]2(NC(=O)C(C(C)C)N3CCS(=O)(=O)CC3)CC[C@]3(C)[C@H](CC[C@@H]4[C@@]5(C)CC=C(c6ccc(C(=O)O)cc6)C(C)(C)[C@@H]5CC[C@]43C)[C@@H]12 (single isomer, unassigned) [Example 111]",< 100 nM
